Tested on: murine dermal fibroblasts
Assay: RNA-Seq of newborn murine dermal fibroblasts
Assay type: cell-based, mouse
Details: 10^−7 M, 24 h

Compound: C=C1CCC(O)CC1=CC=C1CCCC2(C)C1CCC2C(C)(O)CC(O)CC(C)C (centres unmarked) [20,23(OH)2D3]
- Adh7 expression level: 1.158
- Adh7 log2(fold_change) vs control: 2.167
- Aqp11 expression level: 0.9828
- Aqp11 log2(fold_change) vs control: 2.131
- Arid3b expression level: 0.2183
- Arid3b log2(fold_change) vs control: -3.968
- Bicd1 expression level: 0.8132
- Bicd1 log2(fold_change) vs control: -1.4
- Btc expression level: 0.8829
- Btc log2(fold_change) vs control: 1.8593
- Car9 expression level: 2.126
- Car9 log2(fold_change) vs control: -2.151
- Cbs expression level: 0.2841
- Cbs log2(fold_change) vs control: -2.782
- Ccl4 expression level: 0.1702
- Ccl4 log2(fold_change) vs control: -2.322
- Cd68 expression level: 3.478
- Cd68 log2(fold_change) vs control: 1.602
- Cd200 expression level: 0.493
- Cd200 log2(fold_change) vs control: -1.526
- Cherp expression level: 31.4407
- Cherp log2(fold_change) vs control: -2.561
- Clec2g expression level: 0
- Clec2g log2(fold_change) vs control: -inf
- Cnnm4 expression level: 3.148
- Cnnm4 log2(fold_change) vs control: -4.001
- Cox15 expression level: 16.947
- Cox15 log2(fold_change) vs control: 1.531
- Cpa2 expression level: 0.3137
- Cpa2 log2(fold_change) vs control: -2.329
- Ctrl expression level: 0.115
- Ctrl log2(fold_change) vs control: -3.153
- Dcun1d1 expression level: 4.486
- Dcun1d1 log2(fold_change) vs control: -1.564
- Defb42 expression level: 0.09112
- Defb42 log2(fold_change) vs control: -3.331
- Dtx1 expression level: 0.6816
- Dtx1 log2(fold_change) vs control: -1.292
- Ehf expression level: 0.1594
- Ehf log2(fold_change) vs control: -2.391
- Ercc2 expression level: 13.0262
- Ercc2 log2(fold_change) vs control: -3.709
- Erh expression level: 2.145
- Erh log2(fold_change) vs control: -1.557
- Fmnl1 expression level: 0.08875
- Fmnl1 log2(fold_change) vs control: -3.4
- Gys2 expression level: 0
- Gys2 log2(fold_change) vs control: -inf
- Hist1h2ab expression level: 1.7305
- Hist1h2ab log2(fold_change) vs control: 2.585
- Hist1h2bg expression level: 0.5684
- Hist1h2bg log2(fold_change) vs control: -2
- Hist1h2bh expression level: 0
- Hist1h2bh log2(fold_change) vs control: -inf
- Hist1h4c expression level: 0
- Hist1h4c log2(fold_change) vs control: -inf
- Isl1 expression level: 0.3239
- Isl1 log2(fold_change) vs control: -1.316
- Krt19 expression level: 10.8799
- Krt19 log2(fold_change) vs control: 1.0982
- Larp1b expression level: 3.399
- Larp1b log2(fold_change) vs control: -2.948
- Lhx6 expression level: 2.278
- Lhx6 log2(fold_change) vs control: -2.362
- Lsm5 expression level: 1.07
- Lsm5 log2(fold_change) vs control: -1.322
- M1ap expression level: 1.3491
- M1ap log2(fold_change) vs control: 1.119
- Med9os expression level: 0.7965
- Med9os log2(fold_change) vs control: -1.386
- Nckipsd expression level: 11.1997
- Nckipsd log2(fold_change) vs control: 1.42
- Nr3c2 expression level: 0.3025
- Nr3c2 log2(fold_change) vs control: -1.869
- Nr6a1 expression level: 0.323
- Nr6a1 log2(fold_change) vs control: -2.52
- Ntrk3 expression level: 0.007819
- Ntrk3 log2(fold_change) vs control: -7.899
- Parvg expression level: 0.4359
- Parvg log2(fold_change) vs control: -1.7705
- Pde4dip expression level: 25.3974
- Pde4dip log2(fold_change) vs control: -7.279
- Psd4 expression level: 0.1525
- Psd4 log2(fold_change) vs control: -3.368
- Ptpa expression level: 177.146
- Ptpa log2(fold_change) vs control: 1.413
- Ptpn6 expression level: 0.3394
- Ptpn6 log2(fold_change) vs control: -5.148
- Rnu3a expression level: 0
- Rnu3a log2(fold_change) vs control: -inf
- Rpph1 expression level: 0.6606
- Rpph1 log2(fold_change) vs control: -1
- Rsad1 expression level: 1.045
- Rsad1 log2(fold_change) vs control: -1.592
- Saa1 expression level: 0
- Saa1 log2(fold_change) vs control: -inf
- Samd12 expression level: 1.71
- Samd12 log2(fold_change) vs control: -1.081
- Scn8a expression level: 0.1177
- Scn8a log2(fold_change) vs control: -2.776
- Sgca expression level: 0.3824
- Sgca log2(fold_change) vs control: -1.697
- Slc15a4 expression level: 15.7859
- Slc15a4 log2(fold_change) vs control: -1.861
- Slc16a5 expression level: 0.2329
- Slc16a5 log2(fold_change) vs control: -1.992
- Snhg9 expression level: 7.505
- Snhg9 log2(fold_change) vs control: -1.322
- St7 expression level: 25.5959
- St7 log2(fold_change) vs control: -1.436
- Stmn1 expression level: 6.591
- Stmn1 log2(fold_change) vs control: 2.0805
- Susd1 expression level: 1.936
- Susd1 log2(fold_change) vs control: 1.474
- Syt8 expression level: 0.7109
- Syt8 log2(fold_change) vs control: -2.1726
- Syt12 expression level: 0.9907
- Syt12 log2(fold_change) vs control: -2.055
- Tldc2 expression level: 0.1921
- Tldc2 log2(fold_change) vs control: -2.216
- Tnnc2 expression level: 0.313
- Tnnc2 log2(fold_change) vs control: -1.361
- Unc5c expression level: 0.1434
- Unc5c log2(fold_change) vs control: -2.931
- Wdr17 expression level: 1.106
- Wdr17 log2(fold_change) vs control: -1.028
- Zbtb18 expression level: 4.966
- Zbtb18 log2(fold_change) vs control: -3.168
- Zfp618 expression level: 1.583
- Zfp618 log2(fold_change) vs control: -1.597
- number of genes downregulated, FC ≥ 2: 540
- number of genes upregulated, FC ≥ 2: 437
- number of genes solely downregulated (FC ≥ 2): 116 (11%)
- number of genes solely upregulated (FC ≥ 2): 193 (12.8%)

Reference: PMC8044163, “Vitamin D and lumisterol derivatives can act on liver X receptors (LXRs)” (Scientific Reports, 2021)
